From PMC9735595, “Advanced EPI-X4 Derivatives Covalently Bind Human Serum Albumin Resulting in Prolonged Plasma Stability” (International Journal of Molecular Sciences, 2022)
Ends that are not written are not given here. Peptide text beside a SMILES is read from it. * marks the point of attachment. Cam = NC(=O)C*

Key:
[1] = Half-life determination in plasma by mass spectrometry (LC-MS/MS); format: in vitro ADME, human; conditions: 37 °C, one-phase decay; for half-life in human plasma, mass spectrometry, samples diluted with 0.1% TFA / half-life at 7 µM: 7 µM in human plasma; for half-life in human plasma, mass spectrometry, samples diluted with 0.1% TFA: aliquots diluted in 0.1% TFA only, LC-MS/MS peak area of intact free peptide, triplicate; for half-life at 7 µM / half-life: both sexes, pooled K3 EDTA plasma, 3 rounds; for half-life at 7 µM: TFA samples ten-fold diluted with 50 mM NH4HCO3 + 10 mM DTT + 6M GuHCl before LC-MS/MS, read-out: half-life in human plasma, mass spectrometry, after GuHCl + DTT ("real" half-live); for half-life: human plasma, LC-MS/MS of intact peptide normalized to t = 0, sample treatment for the variants not stated, read-out: half-life in human plasma, mass spectrometry, peptides without a reactive Cys-thiol
Procedure: A 50 µL-aliquot of human plasma was spiked with 7 µM JM#21 or WSC02. The mixture was stirred for a few seconds and incubated at 37 °C. Five microliter aliquots were separated after 0, 5, 10, 20, 30, 45, 60, 90, and 120 min. Aliquots were immediately diluted with 1.5 mL 0.1% TFA and stored at −80 °C. The experiment was performed in triplicate. Additionally, for the measurement of denatured samples prior to MS measurement, all of the samples stored in 0.1% TFA were ten-fold diluted with 50 mM NH4HCO3 + 10 mM DTT + 6M GuHCl. A 15 uL-aliquot of every sample was used for mass spectrometry analysis as follows: samples were measured using an Orbitrap Elite Hybrid mass spectrometry system (Thermo Fisher Scientific, Bremen, Germany) online coupled to an U3000 RSLCnano (Thermo Fisher Scientific, Idstein, Germany) employing an Acclaim PepMap analytical column (75 μm × 500 mm, 2 μm, 100 Å, Thermo Fisher Scientific, Bremen, Germany) at a flow rate of 250 nL/min. Using a C18 μ-precolumn (0.3 mm × 5 mm, PepMap, Dionex LC Packings, Thermo Fisher Scientific, Bremen, Germany), samples were preconcentrated and washed with 0.1% TFA for 5 min at a flow rate of 30 μL/min. The subsequent separation was carried out using a binary solvent gradient consisting of solvent A (0.1% FA) and solvent B (86% ACN, 0.1% FA). The column was initially equilibrated in 5% B. In the first elution step, the percentage of B was raised from 5 to 15% in 5 min, followed by an increase from 15 to 40% B in 30 min. The column was washed with 95% B for 4 min and re-equilibrated with 5% B for 19 min. The mass spectrometer was equipped with a nanoelectrospray ion source and distal-coated SilicaTips (FS360-20-10-D, New Objective, Woburn, MA, USA). The instrument was externally calibrated using standard compounds (LTQ Velos ESI Positive Ion Calibration Solution, Pierce, Thermo Scientific, Rockford, IL, USA). The system was operated using the following parameters: spray voltage, 1.5 kV; capillary temperature, 250 °C; S-lens RF level, 68.9%. XCalibur 2.2 SP1.48 (Thermo Fisher Scientific, Bremen, Germany) was used for data-dependent tandem mass spectrometry (MS/MS) analyses. Full scans ranging from m/z 370 to 1700 were acquired in the Orbitrap at a resolution of 30,000 (at m/z 400) with automatic gain control (AGC) enabled and set to 106 ions and a maximum fill time of 500 ms. Up to 20 multiply-charged peptide ions were selected from each survey scan for collision-induced fragmentation (CID) in the linear ion trap using AGC set to 10,000 ions and a maximum fill time of 100 ms. For MS/MS fragmentation, normalized collision energy of 35% with an activation q of 0.25 and an activation time of 30 ms was used.
For visualization in the XCalibur Qual Browser 2.0 (Thermo Fisher Scientific, Bremen, Germany), extracted ion xhromatograms (XICs) of the most intense isotope (±20 ppm), as theoretically predicted, at z = 3 or z = 4 were calculated. Using default parameters within the QualBrowser, peak areas were calculated and exported. Half-lives were determined by fitting the data (peak area vs. time) to a one-phase exponential decay model using GraphPad Prism 8.4.3 (GraphPad Prism Software LLC, San Diego, CA, USA).
(§1) The influence of several reagents on peptide detection was tested with aliquots separated (peptide + plasma, 300-fold diluted in 0.1%TFA) at t = 10 min. The aliquots were analyzed by LC-MS/MS, as previously described, after 10-fold dilution in 0.1% TFA, 6M GuHCl, 50 mM NH4HCO3 + 10 mM DTT, and 50 mM NH4HCO3 + 10 mM DTT + 6M GuHCl, respectively.
(§2) SupT1 cells were cultured in RPMI supplemented with 10% FCS, 100 units/mL penicillin, 100 µg/mL streptomycin, 2 mM L-glutamine, and 1 mM HEPES (Gibco). Blood was collected from healthy donors (male and female, average age 28 years) using S-Monovettes K3 EDTA (Sarstedt). Plasma was obtained by centrifugation of whole blood at 2.500× g for 15 min. Plasma of 6 donors was pooled and stored at −80 °C.

[2] = Functional plasma stability assay (remaining activity in CXCR4 antibody competition after incubation in plasma); format: in vitro ADME, human; conditions: 37 °C; for half-life in human plasma, functional assay: 20 µM in 100% pooled human K3 EDTA plasma (6 donors), aliquots serially diluted in cold PBS, 12G5-APC competition on SupT1 cells, 2 h at 4 °C, flow cytometry, activity = IC50(t)/IC50(t=0) x 100, one-phase decay, 3 rounds of plasma incubation
Procedure: For the functional assay, WSC02 (a) or JM#21 (b) were spiked into human plasma and incubated at 37 °C. At indicated time points, aliquots were taken and serially diluted in cold PBS. […] After 2 h, unbound antibody was removed, and cells were analyzed by flow cytometry. Remaining activity was determined described before. For detection by mass spectrometry, WSC02 (a) or JM#21 (b) were spiked into plasma and incubated at 37 °C. and analyzed in LC-MS/MS. Half-lives were calculated using a one-phase decay model in GraphPad Prism. Curve fits are shown as dashed lines. Data shown are derived from 3 individual rounds of plasma incubation ± SEM.
as §2
Competition of compounds with an APC-labeled antibody specific for ECL2 of CXCR4 (clone 12G5) was performed in SupT1 cells as described. For this, cells (without buffer) were precooled at 4 °C and a serial dilution of compounds in PBS together with a constant concentration of antibody diluted in buffer (PBS with 1% FCS) was added. After 2 h at 4 °C, unbound antibody was removed and cells analyzed in flow cytometry (CytoFLEX, Beckman Coulter). Mean fluorescence signals (MFI) in the presence of PBS only was set 100%. Isotype control was set 0%. Half-maximal inhibitory concentrations (IC50) were calculated in GraphPad Prism by nonlinear regression.
Decrease in CXCR4-binding activity after incubation of compounds in human plasma was determined to calculate functional stability as described (Harms et al. 2020). For this purpose, the peptides were dissolved at a concentration of 20 µM in 100% plasma. The first aliquot (t = 0) was immediately taken and stored at −80 °C. Aliquots were taken at given time points and also stored. To determine CXCR4 binding, all aliquots were thawed together and serially diluted in ice-cold PBS and subsequently, antibody competition was performed as described before. IC50 at t = 0 defined as 100% activity and decrease in activity was calculated by IC50 (t)/IC50 (t = 0) × 100. Half-lives were determined by one-phase decay using GraphPad Prism.

[3] = target: T1, human serum albumin (HSA) (Homo sapiens, UniProt P02768); test: Interaction with plasma components: size-exclusion fractionation and tryptic digestion of spiked plasma, LC-MS/MS; format: in vitro ADME; conditions: plasma spiked with peptide, 37 °C, 10 min; SEC fractions treated with DTT + GuHCl; tryptic digest LC-MSMS
T1 construct: from tissue; host or cells: human plasma
Procedure: as §1
A 5 µL aliquot of the peptides in plasma, after incubation at 37 °C for 10 min, was injected into a size-exclusion column Yarra SEC-2000 (Phenomenex, CA, USA) of dimensions 7.8 × 300 mm, 3 µm particle size. The separation was done at a flow rate of 0.5 mL/min using a buffer composed of 25 mM NaH2PO4 + 25 mM Na2HPO4 + 250 mM KCl (pH 6.65). Fractions were collected every one minute, and then analyzed by mass spectrometry in denaturing conditions (1/10 in 50 mM NH4HCO3 + 10 mM DTT + 6M GuHCl) as previously described.
A 5 µL aliquot of plasma spiked with WSC02 or JM#21 was mixed with trypsin (50:1) and incubated at 37 degrees for 16 h. Half of the digested sample was reduced and carbamidomethylated, as described above. The digested samples, both unmodified and carbamidomethylated, were analyzed by mass spectrometry, as previously described in this section.

CXCR4 = conditions: cited from earlier work
Description: In addition, both peptides contain a cystein ...

[4] = human plasma, antibody competition read-out, 3 rounds
[5] = human plasma, 30 min, antibody competition read-out, 3 rounds

T1 sequence (P02768 25-609): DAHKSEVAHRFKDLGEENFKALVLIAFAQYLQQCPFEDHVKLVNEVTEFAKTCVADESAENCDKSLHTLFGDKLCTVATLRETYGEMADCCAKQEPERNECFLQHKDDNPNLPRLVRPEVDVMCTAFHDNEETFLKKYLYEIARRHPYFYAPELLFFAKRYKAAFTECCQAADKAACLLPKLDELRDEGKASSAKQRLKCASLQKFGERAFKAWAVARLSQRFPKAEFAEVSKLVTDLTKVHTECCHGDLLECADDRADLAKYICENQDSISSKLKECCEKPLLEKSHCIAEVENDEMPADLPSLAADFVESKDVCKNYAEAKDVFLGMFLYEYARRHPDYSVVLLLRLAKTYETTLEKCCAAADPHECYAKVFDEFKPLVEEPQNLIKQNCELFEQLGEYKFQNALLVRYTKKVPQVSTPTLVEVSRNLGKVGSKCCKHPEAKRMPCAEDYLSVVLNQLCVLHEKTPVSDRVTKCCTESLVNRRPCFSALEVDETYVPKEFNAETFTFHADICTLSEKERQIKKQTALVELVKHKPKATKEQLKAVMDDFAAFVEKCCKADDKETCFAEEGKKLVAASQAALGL

| Molecule | half-life in human plasma, mass spectrometry, samples diluted with 0.1% TFA [1] [min] | half-life at 7 µM [1] [min] | half-life in human plasma, functional assay [2] [min] | half-life in human plasma, functional assay ([2]; listed as JM#21) [min] | activity decreased by (loss of activity) after 15 min in plasma [2, 4] [%] | remaining activity after 30 min in plasma [2, 5] [%] | interaction with human serum albumin in plasma (in words) [3] | higher antagonistic activity as compared with EPI-X4 (CXCR4) [fold] | half-life [1] [min] | activity reduced by (loss of activity) after 30 min in plasma [2, 5] [%] | half-life in human plasma, functional assay ([2]; listed as WSC02) | remaining activity after 60 min in plasma ([2]; human plasma, 60 min, antibody competition read-out, 3 rounds) [%] |
| --- | --- | --- | --- | --- | --- | --- | --- | --- | --- | --- | --- | --- |
| CC[C@H](C)[C@H](N)C(=O)N[C@@H](CC(C)C)C(=O)N[C@@H](CCCNC(=N)N)C(=O)N[C@@H](Cc1c[nH]c2ccccc12)C(=O)N[C@@H](CO)C(=O)N[C@@H](CCCNC(=N)N)C(=O)N[C@@H](CCCCN)C(=O)N[C@@H](CC(C)C)C(=O)N1CCC[C@H]1C(=O)N[C@@H](CS)C(=O)N[C@H](C(=O)N[C@@H](CO)C(=O)O)C(C)C [EPI-X4 JM#21] | 1.7 | 5 | 6 | ~6 | 69 | 10 | forming a disulfide bridge with a free thiol group (Cys34) on HSA | ~300 | – | – | – | – |
| CC[C@H](C)[C@H](N)C(=O)N[C@@H](CC(C)C)C(=O)N[C@@H](CCCNC(=N)N)C(=O)N[C@@H](Cc1c[nH]c2ccccc12)C(=O)N[C@@H](CO)C(=O)N[C@@H](CCCNC(=N)N)C(=O)N[C@@H](CCCCN)C(=O)N[C@@H](CC(C)C)C(=O)N1CCC[C@H]1C(=O)N[C@@H](CSCC(N)=O)C(=O)N[C@H](C(=O)N[C@@H](CO)C(=O)O)C(C)C [JM#21 Cdm] | – | – | 3 | – | 95 | – | – | – | 3 | – | – | – |
| CC[C@H](C)[C@H](N)C(=O)N[C@H](C(=O)N[C@@H](CCCNC(=N)N)C(=O)N[C@@H](Cc1c[nH]c2ccccc12)C(=O)N[C@@H](CO)C(=O)N[C@@H](CCCCN)C(=O)N[C@@H](CCCCN)C(=O)N[C@H](C(=O)N1CCC[C@H]1C(=O)N[C@@H](CSCC(N)=O)C(=O)N[C@H](C(=O)N[C@@H](CO)C(=O)O)C(C)C)C(C)C)C(C)C [WSC02 Cdm] (H-IVRWSKKVPC(Cam)VS-OH) | – | – | 6 | – | – | – | – | – | 5 | 93 | – | – |
| ILRWSRKLPSVS [JM#21 C10S] | – | – | 4 | – | 91 | – | – | – | 4 | – | – | – |
| IVRWSKKVPCVS [EPI-X4 WSC02] | 0.7 | 6 | 9 | – | – | – | forming a disulfide bridge with a free thiol group (Cys34) on HSA | – | – | – | about 9 min | 20 |
| IVRWSKKVPSVS [WSC02 C10S] | – | – | 7 | – | – | – | – | – | 4 | 92 | – | – |
